The text below walks through data of a melting point compilation (Tetko et al.; mined from patent text by program, amines drawn as free bases though some values may be those of a salt).

Compound `CNC(=S)C1(c2ccc3ccccc3n2)CCCS1` (stereo not drawn) gave a melting point of 124 °C. `COc1ccc(C(=O)N2CCc3cc(OCc4ccccc4)c(OC)cc3C2=O)cc1OC` showed a melting point of 200 to 201 °C. In the case of `O=C(Cc1ccncc1)c1ccc(F)cc1` it was 90 to 91 °C; in that of `O=C1NCCN1C1CCN(CCC2COc3cc(Cl)c(Cl)cc3O2)CC1` (stereo not drawn), 85 to 90 °C; in that of `CC1(c2ccccc2)OC(=O)C(=O)CC1=O` (stereo not drawn), 142 to 144 °C. Turning to `Cc1ccc(C(=Cc2nnnn2C)c2ccc(C)cc2C)c(C)c1`, the melting point lay within 143 to 144 °C. The figure for `COc1cc2c(cc1OC)[C@@H]1c3ccc(C)cc3C(=O)N(Cc3ccccc3)[C@H]1CC2` (relative stereo) is 154 to 157 °C; for `COc1ccc(CN2CCN(c3nc(C)c(C(N)=O)s3)C2=O)cc1F` it is 182 to 184 °C. In turn, `CC(=O)Nc1nc(Cl)c(NC=O)c(N[C@@H]2C=C[C@H](CO)C2)n1` (relative stereo) showed a melting point of 194 to 195 °C.

With `COC(=O)C(CCn1c(C(=O)c2ccccc2)cc(Br)c1Br)C(=O)OC`, the melting point fell in the range of 96 to 96.5 °C. In the case of `C#CCCN1C(=O)c2ccccc2C1=O` it was 137 to 139 °C. In the case of `Cc1ccc2onc(O)c2c1` it was 95 to 97 °C; in that of `O=c1[nH]c2cscc2c(=O)n1CCCCCN1CCC(=C(c2ccc(F)cc2)c2ccc(F)cc2)CC1`, 118 to 122 °C. `COc1cc2c(cc1OC)CN(CCCCc1ccc(NC(=O)c3cnc4ccccc4n3)cc1)CC2` yielded a melting point of 144 °C. Regarding `O=C(O)COC(c1cccc(-c2nnc(Nc3ccc(Cl)c(Cl)c3)s2)c1)c1cccc(C(F)(F)F)c1` (stereo not drawn), the melting point lay within 89 to 91 °C.

`CNC(=O)C(=NOC)c1ccccc1COc1ccc(Sc2ccccc2)cn1` registered a melting point of 95 to 96 °C.

With `CC(C)(C)OC(=O)NNC(=O)Cc1nc2cc(F)c(N3CCN(C(=O)OC(C)(C)C)CC3)cc2n1C1CC1`, the melting point was 202 to 203 °C. As for `CCCCCc1ccc(-c2ccc(-c3ccc(C)cc3)s2)cc1F`, the melting point is 115 °C. Take `O=Cc1cccc2cc3ccccc3cc12`: the melting point lay within 126 to 128 °C.

With `CCN(CC)C(=O)c1ccc(C(=C2CCNCC2)c2cccc(OC)c2)cc1`, the melting point was over 90 °C. `O=C1CC[C@H](N2C(=O)c3cccc(CNC(=O)C4CC4)c3C2=O)C(=O)N1`: the melting point lay in the range of 219 to 221 °C. Turning to `COC(=O)c1cccc(Cn2ccc(OCc3ccc(F)cc3F)c(Br)c2=O)c1`, the melting point was 115 to 117 °C. In the case of `CN(c1ccccc1C=CC1=NCCC1)C1CCCCC1` it was 163 to 164 °C; in that of `CC(C)(C)c1csc(-c2nc(Cl)c(Cl)[nH]2)n1`, 157 to 158 °C; in that of `CCOC(=O)c1cc(OC)c(OCc2nc(C)c(C)nc2C)c(OC)c1`, 122 to 123 °C. The figure for `COc1cccc(C2=C(C(=O)c3ccc(O)cc3)c3ccc(OC)cc3CC2)c1` is 197 to 198 °C. For the compound `O=c1c2ccccc2ncn1CCN1CCC(c2c[nH]c3ccccc23)CC1`, the melting point stood at 90 °C.

As for `Fc1cccc(Cl)c1-c1cc(Cl)n(-c2ccc(COc3ncc(C(F)(F)F)cc3Cl)cc2)n1`, the melting point is 120 to 121 °C. `O=C(Nc1ccc(Cl)c(Cl)c1)O[C@H]1COC(c2ccccc2)=N[C@@H]1c1ccccc1` (racemic) had a melting point of 184 °C. In the case of `CCCCCCCC1CCC(C(C#N)Cc2ccc(Br)cc2)CC1` (stereo not drawn), the melting point was in the range of 60 to 62 °C. Turning to `CS(=O)(=O)N=C(NCC(=O)O)Nc1ccc(C#N)cc1`, the melting point was determined as 170 °C. Compound `CCCn1c(=O)c2c(nc(C=Cc3cc(OC)c(OC)cc3S(=O)(=O)N(CC)CC)n2C)n(CCC)c1=O` showed a melting point of 227 to 228 °C.

`O=C1Cn2c(nc3ccccc3c2=O)-c2ccccc2N1` yielded a melting point of 318 to 319 °C.

Turning to `O=C1CCC(c2ccccc2)(c2ccccc2)C2CN(C(Cc3ccccc3)=NCc3ccccc3)CC12` (stereo not drawn), the melting point is 165 °C. `CC(C)(C)NS(=O)(=O)c1ccc(S(N)(=O)=O)s1` showed a melting point of 116 to 120 °C.

The compound `CC(C)CN1CCc2ccc(C(=O)CCC(=O)N3CCC(c4ccc(Cl)cc4)CC3)cc2CC1` gave a melting point of 137 to 138 °C. On to `O=C(CC(O)(c1cc(Cl)cc(Cl)c1)C(F)(F)F)c1ccc(-n2cncn2)nc1` (stereo not drawn), for which the melting point was 135 to 136 °C. `CC(C)c1cccc(Nc2nc(Cl)nc(NCc3ccccn3)n2)c1` had a melting point of 130 to 132 °C. `COc1cc(C=CC(=O)c2ccc(O)c(OC)c2)ccc1O` yielded a melting point of 111 to 114 °C. The figure for `COc1cc2c3ccc(OC)c(OC)c3n(S(=O)(=O)c3cc(Cl)ccc3Cl)c2cc1OC` is 221 to 224 °C; for `Oc1ccc2nscc2c1` it is 215 to 216 °C; for `C=CCc1cc(Br)ccc1OCC(=O)OCC` it is 70.5 °C.

As to `O=C(NC(=O)c1c(F)cccc1F)Nc1cc(Cl)c(S(=O)C(F)(F)C(F)F)cc1Cl` (stereo not drawn), the melting point lay within 216 to 220 °C. The compound `COC(=O)c1ccccc1S(=O)(=O)NC(=O)Nc1nc(Cl)cn(C)c1=O` registered a melting point of 213 to 214 °C. As for `C#Cc1ccc(C2=C(C#N)C(=C(C#N)C#N)OC2(C)C)cc1`, the melting point was found to be 225 °C. Compound `Cc1cc(Oc2ccc([N+](=O)[O-])c(Cl)c2)n[nH]1` yielded a melting point of 91 to 93 °C. Turning to `CCOC(=NC(=O)Nc1ccc(OC(F)(F)F)cc1)c1ccccc1Cl`, the melting point was in the range of 86 to 89 °C.

In the case of `CCOC(=O)C[C@@H]1C(=O)N(S(=O)(=O)c2ccc(OC)cc2)C=C[C@@H]1c1ccco1`, the melting point lay within 98 to 100 °C.

Regarding `O=C(O)CCCc1ccccc1CC1C(=O)CC(=O)C1=O` (stereo not drawn), the melting point came out at 123 °C. As to `CC(C)(C)C(NC(=O)c1ccc(Cl)cc1)NC(=NC#N)NCc1ccccn1` (stereo not drawn), the melting point fell in the range of 184 to 185 °C.

As for `COc1cc(CCCN2CCc3cc(OC)c(OC)cc3C2)ccc1NC(=O)c1cccc2c(=O)c3cccc(OC)c3[nH]c12`, the melting point was determined as 188 °C.

As to `COc1ccc(C(Cc2cc(Cl)nc(Cl)c2)=NO)cc1OC1CCCC1`, the melting point lay within 139 to 140 °C. As for `CNc1nc(C)c(-c2nc3ccccc3c(=O)n2-c2ccc(Cl)cc2)s1`, the melting point fell in the range of 195 to 197 °C. As to `OCCCc1cnoc1-c1ccc(F)c(Br)c1`, the melting point fell in the range of 57 to 58 °C. `COc1cc(C)c([N+](=O)[O-])cc1C(=O)NCC1CCCO1` (stereo not drawn) returned a melting point of 178 to 180 °C. In the case of `CSc1nc(C)c(CCO)c(=O)n1C` it was 117 to 118 °C; in that of `COCCOCOc1c(C(C)(C)C)cc(-c2noc(=O)[nH]2)cc1C(C)(C)C`, 112 to 114 °C; in that of `CCn1nc(-c2ccc(F)cc2)c(-c2ccc(S(C)(=O)=O)cc2)cc1=O`, 177 to 179 °C.

For `O=C(c1cc(N2CCOCC2)ccn1)N(O)Cc1ccccc1`, the melting point was in the range of 105 to 110 °C. `Cc1cc(C)n(-c2nccc(NC3CCCCC3)n2)n1`: the melting point was in the range of 144 to 147 °C.

As for `COC(=O)c1nccnc1NCc1ccncc1`, the melting point was 95 °C. In the case of `CCOC(=O)C1=C(C)NC(C)=C(C(=O)OCCN2CCN(C(c3ccccc3)c3ccccc3)CC2)C1c1cccc(Cl)c1Cl` (stereo not drawn), the melting point lay within 87 to 89 °C.

Compound `CC(CI)CCCC(C)C1CC=C2C3=C(CCC21C)C1(C)CCC(O)C(C)(C)C1CC3` (stereo not drawn) showed a melting point of 148 °C. `O=Cc1cc(N2C(=O)C3=C(CCCC3)C2=O)ccc1Cl` registered a melting point of 140 to 141 °C.

Turning to `O=C1N(c2cc(Cl)cc(Cl)c2)C(=O)C2(Cc3ccc(-c4nnn[nH]4)cc3)CCCN12` (stereo not drawn), the melting point came out at 195 °C. Regarding `CC(=O)C1(COC(=O)Oc2ccccc2)CC2C=CC1C2` (stereo not drawn), the melting point lay within 76 to 77 °C.

`N#CC1(c2ccc(OCc3ccc(F)cc3)c(OC3CCCC3)c2)CCC(=O)CC1` displayed a melting point of 145 to 146 °C. In turn, `Nc1cccc(-c2ccc(CCNCc3cccc(Cl)c3)c3ccccc23)n1` had a melting point of 60 to 75 °C.

Compound `COC(=O)c1cc(C(=O)NN)c2cc(Cc3ccc(F)cc3)cnc2c1O` came in with a melting point of 156 to 157 °C. As to `COc1ccc(C2CSc3ccccc3N(CCO)C2=O)cc1` (stereo not drawn), the melting point worked out at 133 °C. The compound `Cc1cc(-c2nc3cccnn3c2-c2ccnc(NC(=O)c3ccoc3)c2)ccc1F` had a melting point of 199 to 200 °C. In the case of `COC(=O)Oc1c(C(=O)c2ccc(Cl)cc2Cl)c(C)nn1C` it was 86 to 88 °C. The figure for `O=C(Nc1nc(C(F)(F)F)co1)C1c2ccccc2Oc2ccccc21` is 222 °C; for `CCOC(=O)C(C=C(C)CP(=O)(OCCCl)OCCCl)NC=O` (stereo not drawn) it is 47 to 49 °C.

With `CCCCCCC1c2cc(CC#N)ccc2-c2ccc(CC#N)cc21`, the melting point fell in the range of 130 to 131 °C.

Compound `COc1ccc(CNc2nc(-c3ccc(C(=O)O)cc3)nc3scc(C)c23)cc1Cl` yielded a melting point of 245 °C. As for `CCc1cn(C2CC(F)C(CO)O2)c(=O)[nH]c1=S` (stereo not drawn), the melting point is 139 to 140 °C. For `CC(C)c1ccc(-n2c(CC(=O)O)c(C(=O)O)c3cc(Oc4cccc(C(F)(F)F)c4)ccc32)cc1`, the melting point is 185 to 190 °C.

In the case of `OC1CCCc2c(-c3ccc4nc(-c5ccc(Cl)cc5)cn4c3)cccc21` (stereo not drawn), the melting point was 218 to 220 °C. Turning to `COc1cc(C(OC)OC)cc([N+](=O)[O-])c1O`, the melting point fell in the range of 58 to 59 °C. The figure for `CC(C)(C)OC(=O)[C@@H]1CCCN1C(=O)C=CC(F)(F)F` is 119 to 120 °C; for `CCOc1cc(N(Cc2cccnc2)c2ccc(C(=O)O)cc2)ccc1OC(F)F` it is 178 to 179 °C.

In the case of `CC(C)(C)OC(=O)N1CCC(c2ccc(N3C[C@@H](CCO)OC3=O)cc2F)CC1`, the melting point fell in the range of 120 to 122 °C. In turn, `COC(=O)CCc1cc(N)c(O)c(C(C)(C)C)c1` had a melting point of 108 to 109 °C.

For `CC(=O)OCC1CC(OC(C)=O)C(n2c(Br)nc3cc(Cl)c(Cl)cc32)C1` (stereo not drawn), the melting point was 122 to 125 °C. Take `CC1(C)C(C=C(Br)Br)C1C(=O)O` (stereo not drawn): the melting point was 116 to 117 °C. Compound `CC(C)(C)OC(=O)NCc1ccccc1N` gave a melting point of 94 to 95 °C. Regarding `O=C(O)c1ccc(=O)n(CCNC(=O)c2ccccn2)c1`, the melting point is 266 to 268 °C.
